Results: patent US5028586A, “Insulin derivatives and pharmaceutical preparations containing these derivatives” (Novo Norkisk A/S, priority 1985, dated 1991)

Tested on: guinea pigs
Assay: Protracted hypoglycemia in guinea pigs after subcutaneous injection of insulin derivative preparations
Format: in vivo
Method: 25 ml of a medium containing 1.6 %(w/v) of glycerol. 0.33 % (w/v) of m-cresol, 1/75 M of sodium phosphate, pH value 7.3, were prepared. The solution was sterilized by filtration. 1.5 mg of human insulin-B21-methyl ester, prepared as described in Example 1, were suspended in 1.0 ml of medium.
4.5 mg of human insulin-A17-methyl ester were dissolved in 2.7 ml of 0.015 M phosphoric acid. 21 mg of sodium chloride and 4.1 μliters of an aqueous solution of 152 mM zinc chloride were added. The solution was sterilized by filtration. The pH value of the solution was adjusted to 8.0 under aseptic conditions with a sterile aqueous solution of sodium hydroxide. The pH value of the solution was then readjusted to 7.3 with sterile hydrochloric acid, and rhombohedral crystals with a mean size of 10 μm were formed with gentle stirring at 21° C. The volume was adjusted to 3 ml with sterile water.
Moreover, a sterile solution of 3 ml of 13.5 mM phosphoric acid in admixture with 21 mg of sodium chloride and 9 μliters of m-cresol was prepared, and the pH value was adjusted to 7.3 with a sterile aqueous solution of sodium hydroxide. The two solutions were combined.
15 mg of human insulin-A4-gln, obtained as described in Example 5, was dissolved in 10 ml of a solution containing 13.5 mM phosphoric acid, 0.3 % m-cresol and 1.6 % glycerol. The solution was sterilized by filtration, and the pH value was adjusted to 9,0 with a sterile solution of sodium hydroxide. The pH value was readjusted to 8.2 with a sterile solution of hydrochloric acid, and human insulin-A4-gln crystallized as rhombohedral crystals with gentle stirring.

## human insulin-B21-methyl ester
subcutaneous, zinc-free preparation, comparator standard protamin insulin preparation "Insulatard"
  protracted insulin action compared with "Insulatard": comparable to the hypoglycemia observed after injection of a standard protamin insulin preparation
subcutaneous, zinc-free suspension 1.5 mg in 1.0 ml medium, pH 7.3
  hypoglycemia after subcutaneous administration: protracted hypoglycemia was observed

## human insulin-A4-gln
Subcutaneous injection of crystalline suspension at 0.5 IU/kg, "Insulatard" at 0.5 IU/kg
  protracted hypoglycemic effect compared with "Insulatard": nearly identical both in timing and amplitude

## human insulin-A17-methyl ester
Dosage 18 μg/kg, crystalline zinc preparation
  biological activity (area below the blood glucose curve) compared with human insulin: nearly the same biological activity as human insulin
Dosage 18 μg/kg, crystalline zinc preparation, comparator "Insulatard"
  protracted insulin action compared with "Insulatard": longer than the protracted action of the known injection preparation
Dosage 18 μg/kg, crystalline zinc preparation, pH 7.3
  hypoglycemia induced: strongly protracted hypoglycemia
